Earlier results in patent publication US20100297147A1, “COMPOSITIONS AND METHODS FOR MODULATING TLR14 ACTIVITY” (WYETH, priority 2006, published 2010).

System: postnatal day 4 rat cerebellar granule neurons
Settings: positive control, used at 10 uM

## C[C@@H](N)[C@H]1CC[C@H](C(=O)Nc2ccncc2)CC1 [Y-27632]
  neurite outgrowth in the presence of myelin (known activity of control compound): known to induce neurite outgrowth in the presence of myelin
